≈ marks a conversion by molar mass, not a printed value. Read-outs that look alike come from different tables or passages of the source.

Broadly, the T/C is the ratio of treated to control. Broadly, the IC50 is the point on the concentration scale where inhibition reaches its midpoint.

For series [1], the system named is MIP 101 human colon tumor xenograft. Description: Subcutaneous MIP 101 colon tumor model in athymic nude mice. As to conditions: for fate of the animals: all animals. The class given is in vivo. The source says:
All cell lines that are used in animal studies are free of Mycoplasma contamination (Rapid Detection System by Gen-Probe, Inc., San Diego, Calif.) and viral contamination (MAP testing by MA BioServices, Inc., Rockville, Md.). The HCT-15 human colon tumor cell line is purchased from the American Type Culture Collection, Rockville, Md., Accession Number ATCC CCL 225. The MIP 101 human colon tumor cell line is obtained from Dr. R. Kramer (Bristol Meyers Squibb) and was previously described (Niles R M, et al. Cancer Invest. 1987;5(6):545-52). These cells are Pgp-1 (human Pgp) overexpressors, making the cells resistant to paclitaxel. All cell lines are propagated and expanded in RPMI 1640 medium containing 10% heat-inactivated FBS (Life Technologies, Grand Island, N.Y.). Cell expansions for implantation are performed in T225 tissue culture flasks. Cells are harvested at 70-90% confluency, washed once with HBSS containing 10% FBS, and are suspended in plain HBSS.
Outbred athymic (nu/nu) female mice (“Hsd:Athymic Nude-nu” from Harlan Sprague Dawley, Indianapolis, Ind.) are anesthetized with Metofane (Mallinckrodt Veterinary, Inc., Mundelein, Ill.,). A cell suspension (100 μL) containing 1×10^6 cells is then injected sc into the right axillary (lateral) region of each animal. Tumors are allowed to grow until a volume of approximately 100 mm^3 was achieved. At this point, mice bearing tumors are sorted into groups of eight for the study. The sorting process produced groups balanced with respect to mean and range of tumor size.
Discodermolide is isolated from the sponge Discodermia dissoluta using the methods of (Gunasekera S P, et al. supra). Multiple batches of compound of similar purity (all>95% pure, as determined by mass spectrometry, and nuclear magnetic resonance analysis) are used throughout the various studies. Solid discodermolide is dissolved in pure ethanol to create a stock solution which is diluted just before dosing with Cremophor EL (Crm) and D5W to a final concentration of 16.7% Cremophor EL, 8.3% ethanol and 75% D5W. The compound is administered intravenously (iv). In the first study discodermolide is tested against both tumors at five different dosing schedules: (i.) 30 mg/kg dosed as two 15 mg/kg injections on day 1 of the experiment, (ii.) 30 mg/kg dosed as three 10 mg/kg injections on days 1, 2, and 3, (iii.) 15 mg/kg dosed as a single injection on day 1, (iv.) 20 mg/kg dosed as a 15 mg/kg injection on day 1, followed by a 5 mg/kg injection on day 11, and (v.) 10 mg/kg dosed as a 7.5 mg/kg injection on day 1 followed by a 2.5 mg/kg injection on day 11. In the second study discodermolide is dosed as one injection on the first day of the experiment, at 2.5 mg/kg, 5 mg/kg, 7.5 mg/kg, 10 mg/kg, 12.5 mg/kg, or 15 mg/kg. In addition the 7.5 mg/kg injection on day 1 followed by a 2.5 mg/kg injection on day 11 is repeated from the first study. The actual doses, regimens and routes of administration used for the specific models are discussed in each section separately. Positive control animals receive clinical formulations of paclitaxel (TAXOL) diluted 4-fold with D5W and administered iv once daily for five consecutive days. Vehicle control for paclitaxel is administered according to paclitaxel's schedule. In the first study vehicle controls for discodermolide (16.7% Cremophor EL, 8.3% ethanol and 75% D5W) are administered as three daily injections on days 1, 2, and 3, or as two injections on days 1, and 11. In the second study vehicle control for discodermolide is administered as a single injection on day 1.
Tumors are measured, and individual animal body weights are recorded once weekly. Standard experiments are conducted for 3 full weeks from the initial dosing.
Antitumor activity is expressed as % T/C (comparing Δ tumor volumes for treatment group to vehicle control group). […]

Series [2] has as its system 1A9 cells. In words: In vitro cytotoxicity assay (MTT). Format: cell-based. To be noted: Homo sapiens, 1A9, 72 h, 1A9 cells, 72 hours. The procedure:
(§1) 1A9 and 1A9PTX22 cells are plated in 96-well plates at 5×10^4 cells/well, plced in a tissue culture incubator and allowed to attach overnight. The next morning, the number of viable cells in the “time 0” plate (3 wells for each cell line) is determined using an MTT assay (Alley M C, et al., Cancer Res. 1988, 48:589-601).
(§2) At the same time drugs are added in serial, 10-fold dilutions, to the experimental plates. Corresponding vehicles are added to control plates. Experimental and control plates are then incubated in the tissue culture incubator for 72 hours. After the incubation the number of viable cells is determined in each plate using the MTT assay. IC50s (defined as a concentration of a given compound causing 50% inhibition of cell growth) are determined by comparing cell growth in the drug-treated plate (T−T0) to the cell growth in the corresponding control plate (C−T0). For each experiment results are calculated using average numbers from two sets of plates.
(§3) Discodermolide is isolated from the sponge Discodermia dissoluta using the method of Gunasekera SP (supra). Multiple batches of compound of similar purity (all>95% pure, as determined by mass spectrometry, and nuclear magnetic resonance analysis) are used throughout the various studies. For the in vitro cytotoxicity assays all compounds are dissolved in DMSO and are added to the plates with cells to obtain desired concentrations. […] Paclitaxel is purchased from Sigma/Aldrich, (St. Louis, Mo.). For the in vivo hollow fiber assay, solid discodermolide is dissolved in pure ethanol to create a stock solution which is diluted just before dosing with Cremophor EL and D5W to a final concentration of 16.7% Cremophor EL, 8.3% ethanol and 75% D5W. The compound is administered to mice as a single, 15 mg/kg iv injection. Positive control animals receive clinical formulations of paclitaxel (TAXOL) diluted 4-fold with D5W (12.5% Cremophor El, 12.5% ethanol and 75% D5W final concentrations) and administered iv, at 15 mg/kg, once daily for five consecutive days. Vehicle controls are administered according to the corresponding drug schedules.

The subject of series [3] is 1A9PTX22 cells (β-tubulin mutation). Description: In vitro cytotoxicity assay (MTT). The class given is cell-based, human. The procedure: as §1, §2, §3
[4] abbreviates: first study, 7.5 mg/kg day 1 + 2.5 mg/kg day 11.
The mark [5] stands for this setting: first study, discodermolide iv single 15 mg/kg injection on day 1.
The mark [6] stands for this setting: first study, two 15 mg/kg injections on day 1 (30 mg/kg total).
[7] abbreviates: second study, 7.5 mg/kg day 1 + 2.5 mg/kg day 11.

`C=C/C=C\[C@H](C)[C@H](OC(N)=O)[C@@H](C)[C@H](O)[C@@H](C)C/C(C)=C\[C@H](C)[C@@H](O)[C@@H](C)/C=C\[C@@H](O)C[C@@H]1OC(=O)[C@H](C)[C@@H](O)[C@H]1C` [discodermolide, (+)-Discodermolide]: in series [1] (MIP 101 xenograft, athymic nude mice), the “inhibition of tumor growth (in words)” value was “statistically significant (p<0.01) and reproducible inhibition of tumor growth”. Also, the T/C in series [1] (setting [4]) worked out at 38%; in series [1] (setting [5]), 36%; in series [1] (setting [6]), 24%; in series [1] (setting [7]), 35%; in series [1] (second study, single injection 2.5 mg/kg day 1), 59%; in series [1] (second study, single injection 5 mg/kg day 1), 57%. The T/C in series [1] (second study, single injection 7.5 mg/kg day 1) was 46%; in series [1] (second study, single injection 10 mg/kg day 1), 37%; in series [1] (second study, single injection 12.5 mg/kg day 1), 22%; in series [1] (second study, single injection 15 mg/kg day 1), 18%. The body weight loss is reported as 21.3% in series [1] (setting [4]); 18.9% in series [1] (setting [5]); 23.4% in series [1] (setting [6]); 11.4% in series [1] (setting [7]); 7.9% in series [1] (second study, single injection 2.5 mg/kg); 10.2% in series [1] (second study, single injection 5 mg/kg). The body weight loss in series [1] (second study, single injection 7.5 mg/kg) was 13.2%; in series [1] (second study, single injection 10 mg/kg), 18.7%; in series [1] (second study, single injection 12.5 mg/kg), 15.5%; in series [1] (second study, single injection 15 mg/kg), 11.7%. The “fate of the animals” value in series [1] (first study, 15 mg/kg day 1 + 5 mg/kg day 11) is “sacrificed in the beginning of the third week of the experiment due to the excessive body weight loss”; in series [1] (first study, 30 mg/kg as three 10 mg/kg injections on days 1, 2, 3), “die on day 5 of the experiment”. Also, the deaths entry in series [1] (setting [7]) was “One animal in that group dies from apparent drug toxicity”. Further, the IC50 was 6 ng/mL (≈ 10.1 nM) in series [2] (first experiment); 3 ng/mL (≈ 5.05 nM) in series [2] (second experiment); 3 ng/mL (≈ 5.05 nM) in series [3] (1A9PTX22 cells, 72 hours, second experiment); 3 ng/mL (≈ 5.05 nM) in series [3] (Homo sapiens, 1A9/ptx-22, 72 h).

As for `CC(=O)O[C@H]1C(=O)[C@@]2(C)[C@H]([C@H](OC(=O)c3ccccc3)[C@]3(O)C[C@H](OC(=O)[C@H](O)[C@@H](NC(=O)c4ccccc4)c4ccccc4)C(C)=C1C3(C)C)[C@]1(OC(C)=O)CO[C@@H]1C[C@@H]2O` [paclitaxel, reference compound], the T/C amounted to 82% in series [1] (first study, paclitaxel 15 mg/kg daily for the first 5 days) and 54% in series [1] (second study, paclitaxel iv once daily for five days, p<0.01). In addition, the IC50 in series [2] (first experiment, read-out: IC50) came out at 0.8 ng/mL (≈ 0.937 nM); in series [2] (second experiment, read-out: IC50) it was 0.4 ng/mL (≈ 0.468 nM); in series [3] (Homo sapiens, 1A9/ptx-22, 72 h, 1A9PTX22 cells, 72 hours, first experiment, read-out: IC50), 15 ng/mL (≈ 17.6 nM); in series [3] (Homo sapiens, 1A9/ptx-22, 72 h, 1A9PTX22 cells, 72 hours, second experiment, read-out: IC50), 9 ng/mL (≈ 10.5 nM). Besides, the “fold resistance of 1A9PTX22 versus parental 1A9” value in series [3] (from IC50s of the two in vitro experiments) turned out to be 20 fold.

Values taken from patent US6774143B1, “Method for treating cells resistant to antineoplastic agents” (Novartis AG, priority 2003, dated 2004).
